Measurements reported in patent publication US20210196724A1, “BIARYL COMPOSITIONS AND METHODS FOR MODULATING A KINASE CASCADE” (Athenex, Inc., priority 2016, published 2021).

Tests used:
Type in all cases: cell-based
[1] = test system: SW579 cells; test: CellTiter-Glo cell viability, SW579; details: 72 h
Experimental: (§1) The cell viability of 50 cancer cell lines was studied after treatment with Compound 121. Inhibition concentration values at 50% (IC50) were determined using CellTiter-Glo luminescent cell viability assay after incubation with different compound concentrations. GI50 values were determined according to the examples described above. Each cell line was treated with Compound 121, a standard chemotherapy drug as a reference control, and culture medium as a vehicle control.
(§2) All cells were cultured in media supplemented with 10-15% FBS at 37° C. in the presence of 5% CO2 and at 95% humidity. The culture medium was purchased from GIBCO or Sigma, USA. Cisplatin was chosen as the reference control and purchased from Hospira Australia Pty Ltd. The cell lines studied are presented in Table 5.
(§3) Cells were harvested during a logarithmic growth period and cell number count was determined using Count-star. Cell concentrations were adjusted to 4.44×10^4 cells/mL with respective culture medium. 90 μL of cell suspensions were added to two 96-well plates (plates A and B) with a final cell density of 4×10^3 cells/well.
(§4) 10 μL of culture medium was added to each well of plate A for TO reading. The plate was allowed to equilibrate at room temperature for approximately 30 min. 50 μL of CellTiter-Glo was added to each well and the contents were mixed for 5 min on an orbital shaker to induce cell lysis. The plate was allowed to incubate at room temperature for 20 min to stabilize luminescent signal.
(§5) 10 μM Compound 121 in media was serially diluted 3.16-fold to achieve 9 dose levels. Similarly, 100 μM reference control in media was serially diluted 3.16-fold to prepare reference control solutions. 10 μL drug solution and 10 μL of reference control was dispensed into each well in plate B.
(§6) Test plate B was incubated for 72 h in a humidified incubator at 37° C. in the presence of 5% CO2 and then subjected to CTG assay. The plate was allowed to equilibrate at room temperature for about 30 min. 50 μL of CellTiter-Glo was added to each well and the contents were mixed for 5 min on an orbital shaker to induce cell lysis. The plate was allowed to incubate at room temperature for 20 min to stabilize luminescent signal.
(§7) IC50 and GI50 values for each of the 50 cell lines are presented in Table 6 and were calculated based on the dose-response curves depicted in FIGS. 1-50. The dose-response curves were fitted using nonlinear regression model with a sigmoidal dose response. The formula for calculating survival rate was calculated by the formula:
(§8) Survival rate (%)=(LumTest article−LumMedium control)/(LumNone treated−LumMedium control)×100.

[2] = test system: KYSE-150 cells; test: CellTiter-Glo cell viability, KYSE-150; details: Homo sapiens, 72 h
Experimental: as §1, §2, §3, §4, §5, §6, §7, §8

[3] = test system: HT-1080 cells; test: CellTiter-Glo cell viability, HT-1080; details: Homo sapiens, 72 h
Experimental: as §1, §2, §3, §4, §5, §6, §7, §8

[4] = test system: KP4 cells; test: CellTiter-Glo cell viability, KP4; details: Homo sapiens, KP-4, 72 h
Experimental: as §1, §2, §3, §4, §5, §6, §7, §8

[5] = test system: RPMI 8226 cells; test: CellTiter-Glo cell viability, RPMI 8226; details: Homo sapiens, 72 h
Experimental: as §1, §2, §3, §4, §5, §6, §7, §8

[6] = test system: NCI-H226 cells; test: CellTiter-Glo cell viability, NCI-H226; details: Homo sapiens, 72 h
Experimental: as §1, §2, §3, §4, §5, §6, §7, §8

[7] = test system: HCT-116 cells; test: CellTiter-Glo cell viability, HCT-116; details: Homo sapiens, 72 h
Experimental: as §1, §2, §3, §4, §5, §6, §7, §8

[8] = test system: SK-OV-3 cells; test: CellTiter-Glo cell viability, SK-OV-3; details: Homo sapiens, 72 h
Experimental: as §1, §2, §3, §4, §5, §6, §7, §8

[9] = test system: NCI-H1155 cells; test: CellTiter-Glo cell viability, NCI-H1155; details: Homo sapiens, 72 h
Experimental: as §1, §2, §3, §4, §5, §6, §7, §8

[10] = test system: HUH-7 cells; test: CellTiter-Glo cell viability, HUH-7; details: Homo sapiens, 72 h
Experimental: as §1, §2, §3, §4, §5, §6, §7, §8

[11] = test system: K-562 cells; test: CellTiter-Glo cell viability, K-562; details: Homo sapiens, K562, 72 h
Experimental: as §1, §2, §3, §4, §5, §6, §7, §8

[12] = test system: Raji cells; test: CellTiter-Glo cell viability, Raji; details: Homo sapiens, 72 h
Experimental: as §1, §2, §3, §4, §5, §6, §7, §8

[13] = test system: Molt-4 cells; test: CellTiter-Glo cell viability, Molt-4; details: Homo sapiens, 72 h
Experimental: as §1, §2, §3, §4, §5, §6, §7, §8

[14] = test system: BT474 cells; test: CellTiter-Glo cell viability, BT474; details: Homo sapiens, BT-474, 72 h
Experimental: as §1, §2, §3, §4, §5, §6, §7, §8

[15] = test system: PC-3 cells; test: CellTiter-Glo cell viability, PC-3; details: Homo sapiens, 72 h
Experimental: as §1, §2, §3, §4, §5, §6, §7, §8

[16] = test system: SK-MEL-28 cells; test: CellTiter-Glo cell viability, SK-MEL-28; details: Homo sapiens, 72 h
Experimental: as §1, §2, §3, §4, §5, §6, §7, §8

[17] = test system: 22Rv1 cells; test: CellTiter-Glo cell viability, 22Rv1; details: Homo sapiens, 72 h
Experimental: as §1, §2, §3, §4, §5, §6, §7, §8

[18] = test system: A2058 cells; test: CellTiter-Glo cell viability, A2058; details: Homo sapiens, 72 h
Experimental: as §1, §2, §3, §4, §5, §6, §7, §8

[19] = test system: SCC-4 cells; test: CellTiter-Glo cell viability, SCC-4; details: Homo sapiens, 72 h
Experimental: as §1, §2, §3, §4, §5, §6, §7, §8

[20] = test system: EBC-1 cells; test: CellTiter-Glo cell viability, EBC-1; details: Homo sapiens, 72 h
Experimental: as §1, §2, §3, §4, §5, §6, §7, §8

[21] = test system: A-673 cells; test: CellTiter-Glo cell viability, A-673; details: Homo sapiens, A673, 72 h
Experimental: as §1, §2, §3, §4, §5, §6, §7, §8

[22] = top conc. 10 μM Compound 121, 100 μM cisplatin

Work on `Cc1cc(N2CCOC[C@@H]2C)ccc1-c1ccc(CC(=O)NCc2ccc(F)cc2)nc1` [Compound 121] yielded a GI50 ([1]; read-out: Absolute GI50) of 6 nM, an IC50 ([1]; read-out: Absolute IC50) of 7 nM and an inhibition at 10 µM [1, 22] of 88.2%. For the same molecule, the GI50 ([2]; read-out: Absolute GI50) was 5 nM, the IC50 ([2]; read-out: Absolute IC50) was 6 nM and the inhibition at 10 µM [2, 22] was 80%. The GI50 ([3]; read-out: Absolute GI50) was 5 nM, the IC50 ([3]; read-out: Absolute IC50) was 5 nM and the inhibition at 10 µM [3, 22] was 97.2%. The GI50 ([4]; read-out: Absolute GI50) was 7 nM, the IC50 ([4]; read-out: Absolute IC50) was 8 nM and the inhibition at 10 µM [4, 22] was 90.8%. The GI50 ([5]; read-out: Absolute GI50) was 5 nM, the IC50 ([5]; read-out: Absolute IC50) was 6 nM and the inhibition at 10 µM [5, 22] was 94.8%. For the same molecule, the GI50 ([6]; read-out: Absolute GI50) was 10 nM, the IC50 ([6]; read-out: Absolute IC50) was 13 nM and the inhibition at 10 µM [6, 22] was 61.7%. It also gave a GI50 ([7]; read-out: Absolute GI50) of 9 nM, an IC50 ([7]; read-out: Absolute IC50) of 9 nM and an inhibition at 10 µM [7, 22] of 94.4%. It also gave a GI50 ([8]; read-out: Absolute GI50) of 4 nM, an IC50 ([8]; read-out: Absolute IC50) of 4 nM and an inhibition at 10 µM [8, 22] of 66.2%. For the same molecule, the GI50 ([9]; read-out: Absolute GI50) was 6 nM, the IC50 ([9]; read-out: Absolute IC50) was 7 nM and the inhibition at 10 µM [9, 22] was 87.3%. The GI50 ([10]; read-out: Absolute GI50) was 7 nM, the IC50 ([10]; read-out: Absolute IC50) was 9 nM and the inhibition at 10 µM [10, 22] was 60.8%. For the same molecule, the GI50 ([11]; read-out: Absolute GI50) was 6 nM, the IC50 ([11]; read-out: Absolute IC50) was 6 nM and the inhibition at 10 µM [11, 22] was 98.1%. The GI50 ([12]; read-out: Absolute GI50) was 5 nM, the IC50 ([12]; read-out: Absolute IC50) was 5 nM and the inhibition at 10 µM [12, 22] was 94.2%. The GI50 ([13]; read-out: Absolute GI50) was 13 nM, the IC50 ([13]; read-out: Absolute IC50) was 14 nM and the inhibition at 10 µM [13, 22] was 99.6%. It also gave a GI50 ([14]; read-out: Absolute GI50) of 12 nM, an IC50 ([14]; read-out: Absolute IC50) greater than 10000 nM and an inhibition at 10 µM [14, 22] of 37.9%. The GI50 ([15]; read-out: Absolute GI50) was 8 nM, the IC50 ([15]; read-out: Absolute IC50) was 8 nM and the inhibition at 10 µM [15, 22] was 93.3%. For the same molecule, the GI50 ([16]; read-out: Absolute GI50) was 4 nM, the IC50 ([16]; read-out: Absolute IC50) was greater than 10000 nM and the inhibition at 10 µM [16, 22] was 52.9%. The GI50 ([17]; read-out: Absolute GI50) was 5 nM, the IC50 ([17]; read-out: Absolute IC50) was 6 nM and the inhibition at 10 µM [17, 22] was 89%. For the same molecule, the GI50 ([18]; read-out: Absolute GI50) was 8 nM, the IC50 ([18]; read-out: Absolute IC50) was 8 nM and the inhibition at 10 µM [18, 22] was 98.1%. The GI50 ([19]; read-out: Absolute GI50) was 5 nM, the IC50 ([19]; read-out: Absolute IC50) was 6 nM and the inhibition at 10 µM [19, 22] was 86.1%. For the same molecule, the GI50 ([20]; read-out: Absolute GI50) was 4 nM, the IC50 ([20]; read-out: Absolute IC50) was 4 nM and the inhibition at 10 µM [20, 22] was 56.8%. The GI50 ([21]; read-out: Absolute GI50) was 3 nM, the IC50 ([21]; read-out: Absolute IC50) was 4 nM and the inhibition at 10 µM [21, 22] was 86.1%.
